From US9757473B2, “Cell-penetrating peptide and conjugate comprising same” (GEMVAX & KAEL CO., LTD., priority 2013, dated 2017)
Residues, ends and D or L forms follow the SMILES beside them. No end group written: not given here.

Key:
Type in all cases: cell-based
[1] = system: normal cell DPSC (Dental Pulp Stem Cell); assay: Dose-dependent cell apoptosis by MTT assay, normal cells (Example 5)
Description: (§1) The cell line was made by the cells and the cell cultivation method described in example 2 as same.
(§2) After culturing the cancer cells and normal cells at 96 well-plate in 30-40% level 24-hours in advance by pre-seeding, treating with each reagent, and pre-evaluating killing ability by analyzing cell shape through microscope at 24 hours/48 hours/72 hours after, the quantitative analysis was done by MTT (3-(4,5-dimethylthiazol-2-yl)-2,5-diphenyltetrazolium bromide, a yellow tetrazole) assay which measures OD (optical density) values at 72 hours after.

[2] = system: head and neck cancer cells; assay: Dose-dependent cell apoptosis by MTT assay, cancer cell lines (Example 5); details: MTT at 72 hours
Description: as §1, §2

[3] = system: HN5 and OSC19 head and neck cancer cells; assay: Intracellular trafficking (cell penetrability) by flow cytometry (FACS); details: 10 uM, 2.5 hours
Description: (§3) In order to analysis of intracellular trafficking, Korean head and neck cancer cells (SNU-1041, SNU-1076), head and neck cancer cells founded by MD Anderson cancer center (OSC19, HN5), and normal cells DPSC (Dental Pulp Stem Cell) were used. The cell lines was maintained in good condition by seeding each cells to 100 cm2-culture dishes with RPMI-1640 or DMEM culture-media, 10% FBS and antibiotic-antimycotic antibiotics and culturing in incubator (37° C., 5% CO2). The condition of cells was maintained in good condition by checking the speed and conditions of cells and sub-culturing cells per 2-5 days.

[4] = system: head and neck cancer cells; assay: as above; details: 10 uM, 2.5 hours
Description: as §3

[5] = system: SNU-1041 and SNU-1076 head and neck cancer cells; assay: as above; details: SNU-1041 and SNU-1076 cells, 10 uM, 2.5 hours, FIG. 2
Description: In order to analysis of intracellular trafficking, Korean head and neck cancer cells (SNU-1041, SNU-1076), head and neck cancer cells founded by MD Anderson cancer center (OSC19, HN5), and normal cells DPSC (Dental Pulp Stem Cell) were used.
The cell lines was maintained in good condition by seeding each cells to 100 cm2-culture dishes with RPMI-1640 or DMEM culture-media, 10% FBS and antibiotic-antimycotic antibiotics and culturing in incubator (37° C., 5% CO2). The condition of cells was maintained in good condition by checking the speed and conditions of cells and sub-culturing cells per 2-5 days.
After culturing the cells with prepared cancer cells in 6 well-plate at 60-70% level 24-hours in advance, treating FITC (10 uM), pep1-FITC (10 uM), FITC-TAT (10 uM) separately, eliminating the culture media 2.5 hours later, washing with saline, and separating cells by treating Trypsin-EDTA enzyme to prepare each tube of 10^6 cells/ml, the cells was analyzed by FACS.

CSCC[C@H](NC(=O)[C@H](CC(N)=O)NC(=O)[C@H](CCCNC(=N)N)NC(=O)CNC(=O)[C@H](C)NC(=O)[C@H](CCCCN)NC(=O)[C@H](Cc1ccccc1)NC(=O)CNC(=O)[C@H](CCCNC(=N)N)NC(=O)[C@H](CC(N)=O)NC(=O)c1ccc(NC(=O)COS(=O)(=O)c2ccc(C)cc2)cc1O)C(=O)N[C@@H](CCCNC(=N)N)C(=O)N[C@@H](CCCNC(=N)N)C(=O)N[C@@H](CCCCN)C(=O)N[C@@H](CC(C)C)C(=O)N[C@@H](Cc1ccccc1)C(=O)NCC(=O)N[C@H](C(=O)N[C@@H](CC(C)C)C(=O)N[C@@H](CCCNC(=N)N)C(=O)N[C@@H](CC(C)C)C(=O)O)C(C)C [pep98-NSC 74859] (HELM PEPTIDE1{[Cc1ccc(S(=O)(=O)OCC(=O)[*:2])cc1].[O=C(c1ccc(N[*:1])cc1O)[*:2]].N.R.G.F.K.A.G.R.N.M.R.R.K.L.F.G.V.L.R.L}$$$$V2.0)
killing of normal cells (in words) ([1]; at the concentration that killed almost the whole cancer cells, FIG. 5): did not kill normal cell DPSC

Cc1ccc(S(=O)(=O)OCC(=O)Nc2ccc(C(=O)O)c(O)c2)cc1 [NSC 74859]
concentration from which killing / apoptosis of cancer cells started ([2]; FIG. 4, FIG. 5): 50 µM
concentration killing almost the whole cancer cells ([2]; FIG. 4, FIG. 5): 200 µM
concentration at which cell apoptosis of normal cells was shown ([1]; MTT at 72 hours, FIG. 4): 200 µM
concentration till which normal cells were not killed ([1]; MTT at 72 hours, FIG. 4): 100 µM

pep1-FITC (EARPALLTSRLRFIPK; also: FITC label, site not given here; UniProt O14746 611-626, looked up, fragment)
cell penetrability (in words) [3]: lower cell penetrability
cell penetrability compared with FITC only [4]: improved cell penetrability than the FITC only

NRGFKAGRNMRRKLFGVLRL [pep98]
proliferation of cancer cells (cytotoxicity) ([2]; treated alone, FIG. 3): not significantly decreased

pep 1: pep 1 (consists of 16 amino acids) derived from telomerase, used for comparison (EARPALLTSRLRFIPK; UniProt O14746 611-626, looked up, fragment)
cell penetrability (in words) [5]: high cell penetrability
